According to patent US12049519B2, “Peptide for the delivery of anionic materials” (The Queen's University of Belfast, priority 2019, dated 2024):
Residues, ends and D or L forms follow the SMILES beside them.

What was measured:
[1] = Nanoparticle hydrodynamic size, Malvern Zetasizer (DLS); format: physicochemical; conditions: low N:P ratios
Experimental: FIG. 3: Mean hydrodynamic size and zeta potential of nanoparticles prepared with pEGFP-N1 and A) Peptide 7, B) Peptide 8, C) Peptide 9, D) Peptide 10, E) Peptide 11 or F) Peptide 12 at a range of N:P ratios. For example, at an N:P ratio of 10 with Peptide 7, nanoparticles comprise 0.5 μg of pEGFP-N1 and 5.7 μg Peptide 7. Nanoparticles were made up to 50 μl with molecular grade water and incubated for 30 min at room temperature before hydrodynamic size and zeta potential were measured using a Malvern Zetasizer Nano ZS instrument.
Peptide complexes (an N:P ratio of 0) and composite complexes were prepared at a range of N:P ratios from 1 to 20 to complex 0.5 μg pEGFP-N1. For example, at an N:P ratio of 10 with Peptide 7, nanoparticles comprise 0.5 μg of pEGFP-N1 and 5.7 μg Peptide 7. Nanoparticles were made up to 50 μl with molecular grade water and incubated for 30 min at room temperature before a Malvern Zetasizer Nano ZS instrument with DTS software (Malvern Instruments, UK) was used to measure the mean hydrodynamic particle size of nanoparticles. A 40 μl disposable microcuvette was used to measure the mean size by number of nanoparticles formed by Dynamic Light Scattering (DLS) at 20° C. Results were reported as mean±SEM, and all measurements were performed in triplicate.

[2] = tested on: MCF-7 breast cancer cells; test: Endosomal escape study: transfection with and without chloroquine; format: cell-based; conditions: N:P 10, with and without 10 μM chloroquine, cell line not given
Experimental: (§1) FIG. 6: Transfection efficiency of nanoparticles comprising pEGFP-N1 and Peptides 7 to 12 assessed in A) MCF-7 and B) MDA-MB-231 breast cancer cells with and without chloroquine, a reagent known to facilitate endosomal escape. Cells were transfected for 4 h with peptide/pEGFP-N1 nanoparticles at N:P 10. 10 μM chloroquine was added to cells in appropriate wells along with the nanoparticles. Following transfection, medium was replaced with DMEM supplemented with 10% FCS and incubated for 48 h before quantification of transfection efficiency by flow cytometry at 4% gating. […] Statistical analysis was carried out using an unpaired t test (*=P<0.05, ** =P<0.01, ***=P<0.001)
(§2) In some instances, cells were treated with chloroquine (a reagent known to facilitate endosomal escape) (FIG. 6). For endosomal escape studies, 1 mM chloroquine (Sigma-Aldrich, UK) was added to the cells immediately before transfection, giving a final concentration of 10 μM chloroquine in the nanoparticle transfection mix.

[3] = tested on: MDA-MB-231 breast cancer cells; test: as above; format: cell-based; conditions: N:P 10, with and without 10 μM chloroquine, cell line not given
Experimental: as §1, §2

[4] = Cell viability, MTS assay (FIGS. 11 and 12B); format: cell-based; conditions: N:P ratio of 6 to 15; 24 h post transfection; relative to untreated cells
Experimental: (§3) FIG. 11: Cell viability of A) MCF-7 and MDA-MB-231 breast cancer cells, B) DU145 and PC-3 prostate cancer cells, and C) NCTC-929 fibroblast, HMEC-1 endothelial, and HaCaT keratinocyte cells following transfection with Peptide 10. Cells were transfected with Peptide 10 at a range of N:P ratios for 4 h before replacement with complete medium. After 24 h, cells were treated with MTS reagent for 2 h in dark conditions. A Bio-Tek Powerwave XS plate reader was then used to read absorbance at 490 nm with Gen5 software and any background absorbance was subtracted from readings. Untreated cells were considered to be 100% viable and viability under all conditions was calculated relative to this.
FIG. 12: Transfection efficiency and cell viability of nanoparticles comprising pEGFP-N1 and Peptide 10 assessed in ARPE human retinal cells. (A) Cells were transfected for 4 h with Peptide 10/pEGFP-N1 nanoparticles at a range of N:P ratios. Following transfection, medium was replaced with culture medium supplemented with 10% serum and incubated for 48 h before imaging using i) light and ii) fluorescence microscopy. Scale bar=400 μm. iii) Quantification of transfection efficiency was subsequently analysed by flow cytometry at 4% gating. […] A Bio-Tek Powerwave XS plate reader was then used to read absorbance at 490 nm with Gen5 software and any background absorbance was subtracted from readings. […]

[5] = tested on: HMEC-1 endothelial cells; test: Cell viability, MTS assay; format: cell-based; conditions: irrespective of the N:P ratio
Experimental: as §3
(§4) Cell viability was evaluated by MTS assay with CellTiter 96 AQueous One Solution Cell Proliferation Assay (Promega, UK). MDA-MB-231 and PC-3 cells were seeded at a density of 1.5×10^4 cells per well and MCF-7, and DU145cells seeded at 1.2×10^4 cells per well, ARPE, NCTC-929, HMEC-1, and HaCaT cells seeded at 1.0×10^4, and allowed to adhere in a 96 well plate. Cells were transfected CellTiter reagent was added to each well 24 h post transfection to give a final volume of 10% and returned to the incubator for 2 h. Absorbance was read at 490 nm using a Bio-Tek Powerwave XS plate reader with Gen5 software and any background absorbance was subtracted from readings. Cell viability was expressed as a percentage of the untreated control where the untreated control is considered to be 100% viable.

[6] = tested on: HaCaT keratinocyte cells; test: Cell viability, MTS assay; format: cell-based; conditions: N:P ratios of 15 and 20
Experimental: as §3, §4

[7] = tested on: NCTC-929 fibroblast cells; test: Cell viability, MTS assay; format: cell-based; conditions: N:P ratios of 15 and 20
Experimental: as §3, §4

[8] = tested on: breast and prostate cancer cell lines; test: Cell viability, MTS assay; format: cell-based; conditions: even at a high N:P ratio of 20
Experimental: as §3, §4

[9] = tested on: pEGFP-N1; test: DNA complexation efficiency assay, Quant-iT PicoGreen; format: binding
Experimental: FIG. 2: DNA complexation efficiency assay using Quant-iT™ PicoGreen® reagent indicating the efficiency of A) Peptide 7, B) Peptide 8, C) Peptide 9, D) Peptide 10, E) Peptide 11 and F) Peptide 12 to complex 0.5 μg pEGFP-N1 (Accession Number: U55762.1) (a pDNA) at a range of N:P ratios. Peptide/pEGFP-N1 complexes were prepared at a range of N:P ratios from 1 to 20. 50 μl samples of each N:P ratio was pipetted into a 96-well plate with Quant-iT™ PicoGreen® reagent. Sample fluorescence was then analysed by excitation at 480 nm and the fluorescence emission intensity measured at 520 nm using a Synergy 2 Multi-Mode Microplate Reader. Fluorescence was then calculated as a percentage of the control and converted to the percentage DNA complexed.
Peptide complexes and composite complexes were prepared at a range of N:P ratios from 1 to 20 to complex 0.5 μg pEGFP-N1. Quant-iT™ PicoGreen® Reagent (Life Technologies, UK) was diluted 1:200 in TAE buffer and 50 μl was added to each 50 μl sample. Sample fluorescence was analysed by excitation at 480 nm and the fluorescence emission intensity measured at 520 nm using a Synergy 2 Multi-Mode Plate Reader. Fluorescence intensity of a naked pDNA control (an N:P ratio of 0) was taken as 100% fluorescence and 0% complexed, and any fluorescence detected from samples was taken to be un-complexed. […]

[10] = tested on: MCF-7 breast cancer cells; test: Transfection with peptide/pEGFP-N1 nanoparticles, flow cytometry; format: cell-based; conditions: N:P ratios of 6 to 10
Experimental: (§5) FIG. 5: Transfection efficiency of nanoparticles comprising pEGFP-N1 and A) Peptide 7, B) Peptide 8, C) Peptide 9, D) Peptide 10, E) Peptide 11 and F) Peptide 12 assessed in MCF-7 and
(§6) MDA-MB-231 breast cancer cells. Cells were transfected for 4 h with peptide/pEGFP-N1 nanoparticles at a range of N:P ratios. Following transfection, medium was replaced with DMEM supplemented with 10% FCS and incubated for 48 h before quantification of transfection efficiency by flow cytometry at 4% gating.
(§7) In order to assess the ability of peptide and composite nanoparticles to transfect cells, transfections were carried out in 96-well tissue culture plates.
(§8) MCF-7 and MDA-MB-231 breast cancer cells were seeded at a density of 2.25×10^4 and 2.5×10^4 cells per well respectively, and allowed to adhere overnight at 37° C. with 5% CO2 (FIG. 5).
(§9) Medium was replaced with OptiMEM (Invitrogen, UK) 2 h prior to transfection and the cells returned to the incubator at 37° C. with 5% CO2. […]
(§10) Transfected cells were washed with phosphate buffered saline (PBS) and 2× trypsin used to detach cells at 37° C. in 5% CO2 atmosphere. […] A FACScalibur system (BD Bioscience, UK) or Accuri C6 Plus (BD Bioscience, UK) were used for the detection of green fluorescent protein (GFP) expressing cells at 4% gating (to reduce interference of auto-fluorescence) and results are reported as mean±SEM, n=3.

[11] = tested on: MDA-MB-231 breast cancer cells; test: as above; format: cell-based; conditions: N:P ratios of 6 to 10
Experimental: as §5, §6, §7, §8, §9, §10

CRRRRWRRRRC [Peptide 11, comparative linear peptide, outside the scope of the invention]
particle size as a function of N:P ratio [1]: large particles form at lower N:P ratios | transfection regardless of chloroquine [2]: Very low | transfection regardless of chloroquine [3]: Very low

N=C(N)NCCC[C@H](NC(=O)[C@H](CCCNC(=N)N)NC(=O)[C@H](CCCNC(=N)N)NC(=O)[C@H](Cc1c[nH]c2ccccc12)NC(=O)[C@H](CCCNC(=N)N)NC(=O)[C@H](CCCNC(=N)N)NC(=O)[C@H](CCCNC(=N)N)NC(=O)[C@H](Cc1c[nH]cn1)NC(=O)[C@H](Cc1c[nH]cn1)NC(=O)[C@H](Cc1c[nH]cn1)NC(=O)[C@@H](N)CS)C(=O)N[C@@H](Cc1c[nH]cn1)C(=O)N[C@@H](Cc1c[nH]cn1)C(=O)N[C@@H](Cc1c[nH]cn1)C(=O)N[C@@H](CS)C(=O)O [Peptide 10, CHHHRRRWRRRHHHC] (H-CHHHRRRWRRRHHHC-OH)
viability at 24 h [4]: > 60% | cytotoxic effects (cell viability studies) [5]: no cytotoxic effects | toxicity (cell viability studies) [6]: weak toxicity | toxicity (cell viability studies) [7]: weak toxicity | toxicity (cell viability studies) [8]: weak toxicity, if any

CEHHRRRWRRRHHEC [Peptide 12, comparative linear peptide, outside the scope of the invention]
maximum complexation efficiency [9]: 70% | % transfection [10]: > 10% | % transfection [11]: > 10% | transfection regardless of chloroquine [2]: Very low | transfection regardless of chloroquine [3]: Very low
